Laboratory results reported in ChEMBL document CHEMBL3044635, “Effect of propiconazole and difenoconazole on the control of anthracnose of chilli fruits caused by Colletotrichum capsici” (Crop Prot, 2006).
≈ marks a conversion by molar mass, not a printed value.

Assays:
Colletotrichum truncatum [1] = assay: Fungicidal activity against Colletotrichum capsici assessed as reduction of polygalacturonase trans-eliminase production at 1 ug/ml incubated for 10 days measured up to 120 min by Ostwald-Fenske viscometric analysis (reference value: 40.8%); format: functional; parameters: scale not given: the % may be the effect or the level left
Colletotrichum truncatum [2] = assay: Fungicidal activity against Colletotrichum capsici assessed as reduction of polygalacturonase production at 1 ug/ml incubated for 10 days measured up to 120 min by Ostwald-Fenske viscometric analysis (reference value: 45.3%); format: functional; parameters: scale not given: the % may be the effect or the level left
Colletotrichum truncatum [3] = assay: Fungicidal activity against Colletotrichum capsici assessed as spore germination at 5 ug/ml after 48 to 96 hr (reference value: 70.2 CFU); format: functional
Colletotrichum truncatum [4] = assay: Fungicidal activity against Colletotrichum capsici assessed as mycelial biomass at 5 ug/ml incubated 16 hr photoperiod for 20 days (reference value: 675 mg); format: functional
Colletotrichum truncatum [5] = assay: Fungicidal activity against Colletotrichum capsici assessed as mycelial biomass at 0.5 ug/ml incubated 16 hr photoperiod for 20 days (reference value: 675 mg); format: functional
Colletotrichum truncatum [6] = assay: Fungicidal activity against Colletotrichum capsici assessed as linear growth at 50 ug/ml incubated 16 hr photoperiod for 20 days (reference value: 90 mm); format: functional
Colletotrichum truncatum [7] = assay: Fungicidal activity against Colletotrichum capsici infected chilli plant assessed as fruit mass measured per pot at 0.05% applied as spray on day 10 post inoculation and twice every 20 days measured on day 155 post sowing in green house conditions (reference value: 85.3 to 94.5 g); format: functional
Colletotrichum truncatum [8] = assay: Fungicidal activity against Colletotrichum capsici infected chilli plant assessed as percent disease index at 0.025% applied as spray on day 10 post inoculation and twice every 20 days measured on day 155 post sowing in green house conditions (reference value: 62.5 to 68.6%); format: functional
Capsicum annuum = assay: Phytotoxicity in Capsicum annuum (pepper) at 0.05% applied as spray; format: organism-based; settings: in vivo, other
Colletotrichum truncatum [9] = assay: Fungicidal activity against Colletotrichum capsici infected chilli plant assessed as fruit yield measured per plot at 0.025% applied as spray on day 10 post inoculation and twice every 20 days measured on day 155 post sowing in field conditions (reference value: 8.25 to 9.3 kg); format: functional
Colletotrichum truncatum [10] = assay: Fungicidal activity against Colletotrichum capsici infected chilli plant assessed as percent disease index at 0.05% applied as spray on day 10 post inoculation and twice every 20 days measured on day 155 post sowing in field conditions (reference value: 51 to 56.5%); format: functional
Puccinia allii = assay: Fungicidal activity against Puccinia allii assessed as inhibition of spore germination; format: functional
Colletotrichum truncatum [11] = assay: Fungicidal activity against Colletotrichum capsici assessed as spore germination at 5 ug/ml after 48 to 96 hr relative to control; format: functional
Colletotrichum truncatum [12] = assay: Fungicidal activity against Colletotrichum capsici infected chilli plant assessed as fruit length at 0.1% applied as spray on day 10 post inoculation and twice every 20 days measured on day 155 post sowing in green house conditions (reference value: 6.8 to 7 cm); format: functional
Colletotrichum truncatum [13] = assay: Fungicidal activity against Colletotrichum capsici infected chilli plant assessed as fruit mass measured per pot at 0.1% applied as spray on day 10 post inoculation and twice every 20 days measured on day 155 post sowing in green house conditions (reference value: 85.3 to 94.5 g); format: functional
Colletotrichum truncatum [14] = assay: Fungicidal activity against Colletotrichum capsici infected chilli plant assessed as percent disease index at 0.1% applied as spray on day 10 post inoculation and twice every 20 days measured on day 155 post sowing in green house conditions (reference value: 62.5 to 68.6%); format: functional
Colletotrichum truncatum [15] = assay: Fungicidal activity against Colletotrichum capsici infected chilli plant assessed as fruit length measured per plot at 0.1% applied as spray on day 10 post inoculation and twice every 20 days measured on day 155 post sowing in field conditions (reference value: 8 to 8.7 cm); format: functional
Colletotrichum truncatum [16] = assay: Fungicidal activity against Colletotrichum capsici infected chilli plant assessed as fruit yield measured per plot at 0.1% applied as spray on day 10 post inoculation and twice every 20 days measured on day 155 post sowing in field conditions (reference value: 8.25 to 9.3 kg); format: functional
Colletotrichum truncatum [17] = assay: Fungicidal activity against Colletotrichum capsici infected chilli plant assessed as percent disease index at 0.1% applied as spray on day 10 post inoculation and twice every 20 days measured on day 155 post sowing in field conditions (reference value: 51 to 56.5%); format: functional

Structure (SMILES) | Activity (Colletotrichum truncatum [1]) [%] | Activity (Colletotrichum truncatum [2]) [%] | CFU (Colletotrichum truncatum [3]) | Activity (Colletotrichum truncatum [4]) [mg] | Activity (Colletotrichum truncatum [5]) [mg] | Activity (Colletotrichum truncatum [6]) [mm] | Crop_yield (Colletotrichum truncatum [7]) [g] | PDI (Colletotrichum truncatum [8]) [%] | Activity (Capsicum annuum) | Crop_yield (Colletotrichum truncatum [9]) [kg] | PDI (Colletotrichum truncatum [10]) [%] | MIC (Puccinia allii) [µg/mL] | Activity (Colletotrichum truncatum [11]) [%] | Activity (Colletotrichum truncatum [12]) [cm] | Crop_yield (Colletotrichum truncatum [13]) [g] | PDI (Colletotrichum truncatum [14]) [%] | Activity (Colletotrichum truncatum [15]) [cm] | Crop_yield (Colletotrichum truncatum [16]) [kg] | PDI (Colletotrichum truncatum [17]) [%]
CC1COC(Cn2cncn2)(c2ccc(Oc3ccc(Cl)cc3)cc2Cl)O1 (stereo not drawn) [DIFENOCONAZOLE] | 12.5 | 12 | 4.1 | 118 | 350 | 9 | 140.5 | 34.5 | Non-toxic | 9.1 | 22 | – | – | – | – | – | – | – | –
CCCC1COC(Cn2cncn2)(c2ccc(Cl)cc2Cl)O1 (stereo not drawn) [PROPICONAZOLE] | 8.5 | 9.2 | – | 53 | 240 | 9 | 130 | 33 | – | 9.86 | 20.5 | 50 (≈ 146 µM) | 0 | 8 | 165.6 | 17.5 | 10.2 | 17.5 | 13.5
